Source: ChEMBL document CHEMBL5154721, “Discovery of HDAC6-Selective Inhibitor NN-390 with in Vitro Efficacy in Group 3 Medulloblastoma” (J Med Chem, 2022)
Calls of active or inactive are those of the source. The calls are words filed in the database; no cut-off is given here.

How the values were obtained:
Histone deacetylase 3 = Histone deacetylase 3 (Homo sapiens, UniProt O15379); assay: Inhibition of full length human recombinant HDAC3 expressed in Sf9 baculovirus system using FAM-labeled acetylated peptide as substrate by measuring fluorescence intensity by EMSA method
Histone deacetylase 3, sequence (O15379 whole entry): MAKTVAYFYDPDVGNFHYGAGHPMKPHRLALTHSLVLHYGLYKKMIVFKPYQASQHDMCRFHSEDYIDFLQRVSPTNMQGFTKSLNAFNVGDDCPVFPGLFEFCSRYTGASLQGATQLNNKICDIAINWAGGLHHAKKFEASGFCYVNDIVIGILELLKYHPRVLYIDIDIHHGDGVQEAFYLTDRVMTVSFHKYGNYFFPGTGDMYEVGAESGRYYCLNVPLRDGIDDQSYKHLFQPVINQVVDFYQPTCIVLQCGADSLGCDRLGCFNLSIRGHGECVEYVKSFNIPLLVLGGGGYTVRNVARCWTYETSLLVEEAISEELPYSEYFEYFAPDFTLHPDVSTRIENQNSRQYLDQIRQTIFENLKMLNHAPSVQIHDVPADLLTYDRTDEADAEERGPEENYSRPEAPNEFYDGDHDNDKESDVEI

MM1.S = assay: Cytotoxicity against human MM1.S cells assessed as inhibition of cell growth incubated for 72 hrs measured by spectrophotometer analysis; assay type: functional, cell-based
[1] = target: T1, Protein deacetylase HDAC6 (Homo sapiens, UniProt Q9UBN7); assay: Inhibition of full length human recombinant HDAC6 expressed in Sf9 baculovirus system using FAM-labeled acetylated peptide as substrate by measuring fluorescence intensity by EMSA method
T1 sequence (Q9UBN7 whole entry): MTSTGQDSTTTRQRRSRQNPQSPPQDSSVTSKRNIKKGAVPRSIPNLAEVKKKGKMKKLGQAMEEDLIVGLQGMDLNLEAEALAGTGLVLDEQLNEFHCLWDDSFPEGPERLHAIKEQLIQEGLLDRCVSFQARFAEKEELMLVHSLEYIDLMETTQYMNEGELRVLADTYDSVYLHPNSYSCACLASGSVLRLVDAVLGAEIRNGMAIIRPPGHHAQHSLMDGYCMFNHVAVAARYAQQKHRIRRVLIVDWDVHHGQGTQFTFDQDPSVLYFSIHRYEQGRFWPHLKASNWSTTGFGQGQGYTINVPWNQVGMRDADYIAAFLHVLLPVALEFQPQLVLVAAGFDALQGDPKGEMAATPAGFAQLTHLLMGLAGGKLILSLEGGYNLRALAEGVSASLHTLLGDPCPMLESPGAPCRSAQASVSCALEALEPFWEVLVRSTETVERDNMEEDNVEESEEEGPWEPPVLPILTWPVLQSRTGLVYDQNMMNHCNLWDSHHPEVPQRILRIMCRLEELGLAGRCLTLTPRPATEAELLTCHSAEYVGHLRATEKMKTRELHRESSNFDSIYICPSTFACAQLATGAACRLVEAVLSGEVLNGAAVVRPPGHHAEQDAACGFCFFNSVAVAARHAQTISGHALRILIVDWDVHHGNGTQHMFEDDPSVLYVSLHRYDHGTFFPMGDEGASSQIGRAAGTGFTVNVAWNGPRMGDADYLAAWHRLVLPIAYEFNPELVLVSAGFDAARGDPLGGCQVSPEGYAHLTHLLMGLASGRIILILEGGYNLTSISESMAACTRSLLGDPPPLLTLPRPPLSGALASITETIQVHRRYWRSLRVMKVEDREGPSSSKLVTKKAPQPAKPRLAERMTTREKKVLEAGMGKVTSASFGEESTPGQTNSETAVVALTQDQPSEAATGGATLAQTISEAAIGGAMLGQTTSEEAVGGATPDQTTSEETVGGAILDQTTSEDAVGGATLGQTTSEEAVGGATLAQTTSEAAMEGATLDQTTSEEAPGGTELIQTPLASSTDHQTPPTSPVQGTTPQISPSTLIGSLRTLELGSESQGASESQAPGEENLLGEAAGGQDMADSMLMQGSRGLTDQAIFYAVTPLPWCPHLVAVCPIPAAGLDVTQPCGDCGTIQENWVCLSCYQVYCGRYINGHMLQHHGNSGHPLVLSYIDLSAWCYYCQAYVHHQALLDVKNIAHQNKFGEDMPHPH

Histone deacetylase 11 = target: T2, Histone deacetylase 11 (Homo sapiens, UniProt Q96DB2); assay: Inhibition of full length human recombinant HDAC11 expressed in Sf9 baculovirus system using FAM-labeled acetylated peptide as substrate by measuring fluorescence intensity by EMSA method
T2 sequence (Q96DB2 whole entry): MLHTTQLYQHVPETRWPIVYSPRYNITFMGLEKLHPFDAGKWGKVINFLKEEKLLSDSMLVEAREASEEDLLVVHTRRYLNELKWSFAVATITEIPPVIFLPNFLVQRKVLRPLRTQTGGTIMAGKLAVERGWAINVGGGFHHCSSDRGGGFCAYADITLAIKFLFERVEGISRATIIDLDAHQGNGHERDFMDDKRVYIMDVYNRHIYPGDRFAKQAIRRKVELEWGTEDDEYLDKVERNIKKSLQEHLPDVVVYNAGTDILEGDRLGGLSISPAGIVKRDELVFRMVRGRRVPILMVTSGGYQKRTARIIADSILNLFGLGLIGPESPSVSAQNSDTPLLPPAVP

in vitro = details: human, MRC9 cells
Histone deacetylase 8 = target: T3, Histone deacetylase 8 (Homo sapiens, UniProt Q9BY41); assay: Inhibition of full length human recombinant HDAC8 expressed in Sf9 baculovirus system using FAM-labeled acetylated peptide as substrate by measuring fluorescence intensity by EMSA method
T3 sequence (Q9BY41 whole entry): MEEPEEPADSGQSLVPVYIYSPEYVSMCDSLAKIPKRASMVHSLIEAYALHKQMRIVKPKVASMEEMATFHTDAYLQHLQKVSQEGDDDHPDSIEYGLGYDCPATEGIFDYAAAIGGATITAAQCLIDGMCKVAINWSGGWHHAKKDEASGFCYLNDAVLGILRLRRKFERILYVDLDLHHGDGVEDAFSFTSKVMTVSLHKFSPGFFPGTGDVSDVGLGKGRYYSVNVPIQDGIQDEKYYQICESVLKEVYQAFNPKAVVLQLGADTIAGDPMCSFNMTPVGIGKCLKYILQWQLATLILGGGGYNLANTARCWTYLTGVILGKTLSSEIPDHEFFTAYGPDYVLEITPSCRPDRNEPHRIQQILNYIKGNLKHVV

MV4-11 [2] = assay: cells; assay type: functional, cell-based; details: Homo sapiens, MV4-11, 72 h
[3] = Competitive inhibition of N-terminal His-SUMO tagged zebra fish recombinant HDAC6 catalytic domain 2 transfected with pET28b(+) vector in Escherichia coli BL21 (DE3) RILP cells incubated for 10 mins followed by addition of FITC-M344 measured af ter 10 mins by fluorescence polarization assay; set-up: species or system Danio rerio
MV4-11 [4] = assay: Induction of apoptosis in human MV4-11 cells assessed as late apoptotic cells at 0.25 uM after 24 hrs by Annexin V/PI staining based flow cytometric analysis (Rvb=8.13%); assay type: functional
MV4-11 [5] = assay: Increase in acetylation of histone H3 in human MV4-11 cells at 0.1 uM after 6 hrs by Western blot analysis; assay type: functional, cell-based
MV4-11 [6] = assay: Induction of apoptosis in human MV4-11 cells assessed as late apoptotic cells at 2 uM after 18 hrs by Annexin V/PI staining based flow cytometric analysis; assay type: functional
HD-MB03 [7] = assay: Increase in acetylation of histone H3 in human HD-MB03 cells at 211 nM for 6 hrs by Western blotting anlaysis; assay type: functional, cell-based
HD-MB03 [8] = assay: […] of self renewal of BTIC-enriched human HD-MB03 cells at 964 nM incubated for 72 hrs by sphere formation assay; assay type: functional, cell-based
[9] = Cytotoxicity against human fetal neuronal stem cells assessed as inhibition of cell growth incubated for 72 hrs measured by spectrophotometer analysis; assay type: toxicity, cell-based, NSC
[10] = Cytotoxicity against human HD-MB03 cells assessed as inhibition of cell growth incubated for 72 hrs measured by spectrophotometer analysis; assay type: functional, cell-based; details: HD-MB03, 72 h
[11] = Cytotoxicity against HUVEC cells assessed as inhibition of cell growth incubated for 72 hrs measured by spectrophotometer analysis; assay type: toxicity, cell-based; details: human
[12] = Stability in human plasma assessed as half life measured upto 60 mins by LC-MS/MS analysis; assay type: ADME, cell-free
[13] = Cytotoxicity against primary normal human fibroblast cells assessed as inhibition of cell growth incubated for 72 hrs measured by spectrophotometer analysis; assay type: toxicity, cell-based
[14] = Lipophilicity, logP of the compound; assay type: physicochemical; details: octanol/water
[15] = AUC/D in CD-1 mouse at 20 mg/kg, ip; assay type: ADME, organism-based; details: in vivo
[16] = AUCinfinity in CD-1 mouse at 20 mg/kg, ip; assay type: ADME, organism-based; set-up: time infinity, dose 20 mg/kg, route ip; details: in vivo
[17] = Therapeutic window, ratio of IC50 for human fetal neuronal stem cells to IC50 for human HD-MB03 cells; assay type: ADME; details: fetal neuronal stem cells versus HD-MB03 cells, read-out: Ratio IC50

SMILES	IC50 (Histone deacetylase 3) [µM]	IC50 (MM1.S) [µM]	IC50 [1] [µM]	IC50 (Histone deacetylase 11) [µM]	IC50 at 72 h (in vitro) [µM]	IC50 (Histone deacetylase 8) [µM]	IC50 (MV4-11 [2]) [µM]	IC50 [3] [µM]	other results
O=C(NO)c1ccc2c(c1)CCN(S(=O)(=O)c1cc(F)c(F)c(F)c1F)C2	> 1	1.54	0.0504	> 1	> 25	> 1	0.9		
CC(C)N(Cc1ccc(C(=O)NO)cn1)S(=O)(=O)c1cc(F)c(F)c(F)c1F	> 1	1.6	0.121	> 1	> 50	> 1	1	1.13	
O=C(CCCCCCNC(=O)c1cnc(N(c2ccccc2)c2ccccc2Cl)nc1)NO [CITARINOSTAT]					> 30			0.154	Activity (MV4-11 [4]): 8.31%; inhibition (MV4-11 [5]): Active; Activity (MV4-11 [6]): 24%; Activity (HD-MB03 [7]): Active; Activity (HD-MB03 [8]): Active; IC50 at 72 h [9]: 4.35 µM; IC50 [10]: 5.8 µM
CC(C)N(Cc1ccc(C(=O)NO)cc1)S(=O)(=O)c1c(F)c(F)c(F)c(F)c1F		0.44	0.00432		> 20			0.182	IC50 at 72 h [11]: 3.7 µM; half-life [12]: 22 min; IC50 at 72 h [13]: 2.3 µM; Activity (MV4-11 [5]): Active
CC(C)N(Cc1ccc(C(=O)NO)cc1)Cc1cc(F)c(F)c(F)c1F	0.899	11.3	0.0162	> 1	> 50	> 1	7.43		logP [14]: 4.07
COCCN(Cc1ccc(C(=O)NO)cc1)S(=O)(=O)c1cc(F)c(F)c(F)c1F	> 1	0.71	0.0278	> 1	> 25	> 1	0.66		
O=C(NO)c1ccc(CN(C2CC2)S(=O)(=O)c2cc(F)c(F)c(F)c2F)cc1		0.48			> 20	> 1	0.4	0.173	AUC/dose [15]: 79 ng·h/mL; half-life [12]: 41 min; AUC(0-inf) [16]: 1520 ng·h/mL; IC50 at 72 h [9]: 1.43 µM
O=C(CCCCCCNC(=O)c1cnc(N(c2ccccc2)c2ccccc2)nc1)NO [RICOLINOSTAT]		0.84			> 20			0.0902	IC50 [10]: 5.22 µM
COc1cc(C(=O)NO)ccc1CN(C(C)C)S(=O)(=O)c1cc(F)c(F)c(F)c1F	> 1	5.75	> 1	> 1	> 50	0.474	5.66		
CC(C)N(Cc1ccc(C(=O)NO)cc1)C(=O)c1c(F)c(F)c(F)c(F)c1F		12.3			> 50				
CC(C)N(Cc1ccc(CC(=O)NO)cc1)S(=O)(=O)c1cc(F)c(F)c(F)c1F	> 1	2.4	0.143	> 1	> 25	0.0846	2.5		
CC(C)CN(Cc1ccc(C(=O)NO)cc1)S(=O)(=O)c1cc(F)c(F)c(F)c1F	> 1	0.69	0.0246	> 1	> 50	> 1	0.52	0.137	
O=C(/C=C/c1cccc(S(=O)(=O)Nc2ccccc2)c1)NO [BELINOSTAT]								0.213	selectivity ratio [17]: 3.7; IC50 [10]: 0.32 µM
O=C(CCCCCCC(=O)Nc1ccccc1)NO [VORINOSTAT]		1.54							
O=C(NO)c1ccc(CN(C2CCCC2)S(=O)(=O)c2cc(F)c(F)c(F)c2F)cc1	> 1	3.3	0.0499	> 1	> 50	> 1	2.71	0.356	
